Where two headings read alike, the source gives them in different places.
Experiments:
[1] = Cytotoxicity in Vero C1008 cells; settings: African green monkey
CVB3 = assay: CPE assay, CVB3 in Vero C1008 cells; type: cell-based, coxsackievirus B3 (CVB3); settings: Enterovirus B, CVB3, Vero C1008
EV-A71 Tainan/4643/98 = assay: CPE assay, EV-A71 Tainan in RD cells; type: cell-based; settings: Enterovirus A, EVA71, RD
CVB3 2C protein = biological target: T1, CVB3 2C protein (Coxsackievirus B3, UniProt P03313); assay: Thermal shift assay (differential scanning fluorimetry); type: binding; settings: three concentrations (10, 30 or 100 μM)
T1 construct: CVB3 Nancy 2C (amino acids 37 to 329) protein; His tag with TEV site (inferred from the pET28a(+)-TEV vector and Ni-NTA purification); made in house; host or cells: E. coli Rosetta 2(DE3)
T1 sequence (P03313 1137-1429): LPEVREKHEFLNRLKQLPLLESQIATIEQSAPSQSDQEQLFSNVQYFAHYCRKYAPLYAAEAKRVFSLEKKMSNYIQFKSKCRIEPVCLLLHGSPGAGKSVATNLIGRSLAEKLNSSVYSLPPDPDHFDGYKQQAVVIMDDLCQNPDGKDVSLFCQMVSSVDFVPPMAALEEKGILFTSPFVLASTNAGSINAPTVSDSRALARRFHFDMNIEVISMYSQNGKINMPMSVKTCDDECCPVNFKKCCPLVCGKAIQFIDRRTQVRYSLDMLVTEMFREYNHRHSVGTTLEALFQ

[2] = test system: EV-D68 US/KY/14-18953 virus; assay: CPE assay, EV-D68 US/KY/14-18953 in RD cells; type: cell-based, Enterovirus D68 (EV-D68)
[3] = Cytotoxicity, neutral red method, RD cells; settings: human, RD (rhabdomyosarcoma) cells
[4] = test system: influenza B virus B/Brisbane/60/2008 (Victoria); assay: Plaque assay, influenza B virus; type: cell-based; settings: 10 μM
Procedure: (§1) Plaque assay was performed using the condition described previously (see, Wang, Y.; et al., J. Med. Chem. 2018, 61, 1074-1085). […] Oseltamivir carboxylate was included as a positive control and was tested at 200 nM.

sodium channels = assay: Sodium flux assay in DRG neurons; settings: rat DRG neurons, veratridine
Procedure: In this assay, rat dorsal root ganglia (DRG) neurons were incubated with various concentrations of testing compounds. Sodium channels were then activated by the sodium channel agonist veratridine. The resulting sodium flux was measured indirectly by quantifying the sodium channel triggered calcium flux, which was measured by a calcium-specific fluorescence dye (FIG. 4).
Dorsal root ganglion neurons were prepared as previously described^27 and were loaded for 30 minutes at 3TC with 3 μM Fura-2AM (Cat #F1221, Thermo Fisher, stock solution prepared at 1 mM in DMSO, 0.02% pluronic acid, Cat #P-3000MP, Life technologies) to follow changes in intracellular calcium ([Ca^2+]c) in a standard bath solution containing 139 mM NaCl, 3 mM KCl, 0.8 mM MgCl2, 1.8 mM CaCl2, 10 mM Na HEPES, pH 7.4, 5 mM glucose exactly as previously described^28 Fluorescence imaging was performed with an inverted microscope, NikonEclipseTi-U (Nikon Instruments Inc., Melville, N.Y.), using objective Nikon Fluor 4X and a Photometrics cooled CCD camera Cool SNAP ES^2 (Roper Scientific, Tucson, Ariz.) controlled by Nis Elements software (version 4.20, Nikon Instruments). […] Fluorescence was recorded through a 505-nm dichroic mirror at 535±25 nm. […] The changes in [Ca^2+]c were monitored by following a ratio of F340/F380, calculated after subtracting the background from both channels. […]

[5] = test system: influenza A virus A/California/07/2009 (H1N1); assay: Plaque assay, influenza A virus; type: cell-based; settings: 10 μM
Procedure: as §1

[6] = test system: EV-D68 viral capsid protein VP1; assay: VP1 expression by immunofluorescence imaging and western blot; type: cell-based, Enterovirus D68 (EV-D68); settings: for VP1 protein expression: 1 μM, US/KY/14-18953 MOI=1, 9 hpi, immunofluorescence imaging and western blot
Procedure: The EV-D68 2C protein is a highly conserved viral protein that plays multiple functions in genome replication. It has been implicated in RNA replication, membrane rearrangements, encapsidation, and uncoating (see, Van der Linden, L.; et al., Viruses 2015, 7, 4529-4562). Inhibition of viral 2C protein is expected to inhibit viral RNA and protein synthesis.
Total proteins were extracted at 9 hpi using RAPI lysis buffer [50 mM Tris (pH 8.0), 1% NP-40, 0.1% SDS, 150 mM NaCl, 0.5% Sodium deoxycholate, 5 mM EDTA, 10 mM NaF, 10 mM NaPPi, […] 1 mM PMSF]. Equal amount of extracted total proteins were separated by electrophoresis and transferred to a polyvinylidene difluoride (PVDF) membrane. Viral protein VP1 or host GAPDH was recognized by rabbit anti-VP1 (GeneTex: GTX132313; 1:3,000 dilution) or mouse anti-GAPDH antibody (EMD Millipore: MAB374; 1:3,000 dilution), respectively, followed by detection using Horse radish peroxidase (HRP)-conjugated secondary antibody (ThermoFisher Scientific: 32430 or 656120; 1:3,000 dilutions) and Supersignal West Femto substrate (ThermoFisher Scientific).
At 9 hpi, infected cells were fixed with 4% formaldehyde for 10 min followed by permeabilization with 0.2% Triton X-100 for another 10 min. After blocking with 10% bovine serum, cells were stained with rabbit anti-VP1 antibody (GeneTex: GTX132313) and followed by staining with anti-rabbit secondary antibody conjugated to Alexa-488 (ThermoFisher Scientific). Nucleus were stained with 300 nM DAPI (ThermoFisher Scientific) after secondary antibodies incubation. Fluorescent images were acquired using a Leica SP5-II spectral Confocal Microscope (Leica).

RD cells = settings: human, 3 days
A549 = assay: Cytotoxicity in A549 cells
Procedure: (§2) The cytotoxicity of each compound was determined using the neutral red cell viability assay. The assay was performed under similar conditions (incubation temperature, time, and media) as the CPE, but excluded viral infection. Data acquisition and analysis (CC50) was performed similarly to the antiviral CPE assay, and all values are from triplicate experiments.

HeLa = assay: Cytotoxicity in HeLa cells
Procedure: as §2

SH-SY5Y cells = assay: Cytotoxicity in SH-SY5Y cells
Procedure: as §2

A172 cells = assay: Cytotoxicity in A172 cells
Procedure: as §2

[7] = EV-D68 US/KY/14-18953, RD cells
[8] = Enterovirus D, EVD68, RD, EV-D68 US/KY/14-18953, RD cells, CPE assay, read-out: EC50
[9] = Enterovirus D, EVD68, RD, against five different strains of EV-D68 viruses (summary), read-out: EC50

CNCCC(Oc1ccc(C(F)(F)F)cc1)c1ccccc1 (stereo not drawn)
CC50 at 3 days [1]: 11 µM

COc1ccc(CC(C)NCC(O)c2ccc(O)c(NC=O)c2)cc1 (stereo not drawn)
EC50 (CVB3): 9.9 µM
EC50 (EV-A71 Tainan/4643/98): > 100 µM
CC50 at 3 days [1]: > 300 µM

CNCCNC(=O)c1cc(-c2ccc(F)cc2)nc2ccccc12 [Compound 6aw, 2-(4 fluorophenyl)-N-[2-(methylamino)ethyl]quinoline-4-carboxamide]
thermal stability of CVB3 2C (CVB3 2C protein): increased the thermal stability of CVB3 2C in a concentration dependent manner

O=C(NC1CNC1)c1cc(-c2ccco2)nc2ccccc12 [Compound 6bq, N-(azetidin-3-yl) 2-(furan-2-yl)quinoline-4-carboxamide]
SI = selectivity index (CC50/EC50) [2, 7]: SI50 = 14.5
EC50 [2, 8]: 11.1 µM
CC50 at 3 days [3]: 161 µM

O=C(NCC1CNC1)c1cc(-c2ccco2)nc2ccccc12 [Compound 6br, N-[(azetidin-3-yl)methyl]-2-(furan-2-yl)quinoline-4-carboxamide]
SI = selectivity index (CC50/EC50) [2, 7]: SI50 = 14.8
EC50 [2, 8]: 11.5 µM
CC50 at 3 days [3]: 170 µM

NCCNC(=O)c1cc(-c2ccco2)nc2c(Cl)cccc12 [Compound 6bs, N-(2-aminoethyl)-8-chloro-2-(furan-2-yl)quinoline-4-carboxamide]
SI = selectivity index (CC50/EC50) [2, 7]: SI50 = 50.5
EC50 [2, 8]: 1 µM
CC50 at 3 days [3]: 50.5 µM

CN(C)CCNC(=O)c1cc(-c2ccccc2)nc2ccccc12 [Compound 10a, N-[2-(dimethylamino)ethyl]-2-phenylquinoline-4-carboxamide]
inhibition in plaque assay [4]: no inhibition
EC50 ([2]; Enterovirus D, EVD68, RD, Table 6, EV-D68 US/KY/14-18953, RD cells): 0.4 ± 0.2 µM
EC50 [2, 9]: < 1 µM
inhibition of sodium current conductance (sodium channels; 2 μM to 50 μM): minimal to no effect
inhibition in plaque assay [5]: no inhibition
VP1 protein expression ([6]; RD cells): completely blocked

O=C(NC1CN2CCC1CC2)c1cc(-c2ccccc2)nc2ccccc12 (stereo not drawn) [Compound 10c, N-{1-azabicyclo[2.2.2]octan-3-yl}-2-phenylquinoline-4-carboxamide]
CC50 (RD cells): 46.5 ± 14.7 µM

CN(C)CCNC(=O)c1cc(-c2cccs2)nc2ccccc12 [Compound 12a, N-[2-(dimethylamino)ethyl]-2-(thiophen-2-yl)quinoline-4-carboxamide]
inhibition in plaque assay [4]: no inhibition
EC50 ([2]; EV-D68 US/KY/14-18953, RD cells, CPE assay, listed as 6bf): 0.04 µM
EC50 ([2]; Enterovirus D, EVD68, RD, against five different strains of EV-D68 viruses (summary)): < 1 µM
inhibition in plaque assay [5]: no inhibition
VP1 protein expression ([6]; RD cells): completely blocked

O=C(NCCN1CCCC1)c1cc(-c2cccs2)nc2ccccc12 [Compound 12c, N-[2-(pyrrolidin-1-yl)ethyl]-2-(thiophen-2-yl)quinoline-4-carboxamide]
inhibition in plaque assay [4]: no inhibition
EC50 [2, 9]: < 1 µM
inhibition in plaque assay [5]: no inhibition
VP1 protein expression ([6]; RD cells): completely blocked

CCCCOc1cc(C(=O)NCCN(CC)CC)c2ccccc2n1 [dibucaine, reference compound]
inhibition in plaque assay [4]: no inhibition
inhibition of sodium current conductance (sodium channels; 20 μM and 50 μM): potently inhibited
inhibition in plaque assay [5]: no inhibition
VP1 protein expression ([6]; RD cells): no effect
fluorescent signal of VP1 (immunofluorescence) ([6]; 3 μM, 9 hpi, compared to DMSO control): significantly reduced
VP1 expression (western blot) ([6]; 3 μM, RD cells, 9 hpi): nearly completely inhibited

CCCCOc1cc(C(=O)NCCN(CC)CC)c2ccccc2n1 [drawing 127]
CC50 (A549): 37.5 µM
CC50 (HeLa): 36 µM

CN(C)CCNC(=O)c1cc(-c2ccccc2)nc2ccccc12 [drawing 128]
CC50 (A549): 121 µM
EC50 ([2]; EV-D68 US/KY/14-18953, RD cells, CPE assay, read-out: EC50): 0.4 µM
CC50 (HeLa): 68.7 µM

CN(C)CCNC(=O)c1cc(-c2cccs2)nc2ccccc12 [drawing 129]
CC50 (A549): 98.8 µM
EC50 ([2]; EV-D68 US/KY/14-18953, RD cells, CPE assay): 0.04 µM
CC50 (HeLa): 51.2 µM

CCCCOc1cc(C(=O)NCCN(CC)CC)c2ccccc2n1 [drawing 131]
CC50 (SH-SY5Y cells): > 30 µM
CC50 (A172 cells): > 30 µM

CN(C)CCNC(=O)c1cc(-c2ccccc2)nc2ccccc12 [drawing 132]
CC50 (SH-SY5Y cells): > 300 µM
CC50 (A172 cells): 88.4 µM
